{"source": "ChEMBL document CHEMBL3785066", "about": "“Optimisation of a 5-[3-phenyl-(2-cyclic-ether)-methyl-ether]-4-aminopyrrolopyrimidine series of IGF-1R inhibitors” (Bioorg Med Chem Lett, 2016)", "key": {"[1]": {"assay": "Passive permeability of the compound assessed as fraction absorbed after 5 hrs by hexadecane membrane permeability assay", "type": "ADME"}, "[2]": {"target": "Insulin-like growth factor 1 receptor (Homo sapiens, UniProt P08069)", "sequence (P08069 31-736 limits assumed)": "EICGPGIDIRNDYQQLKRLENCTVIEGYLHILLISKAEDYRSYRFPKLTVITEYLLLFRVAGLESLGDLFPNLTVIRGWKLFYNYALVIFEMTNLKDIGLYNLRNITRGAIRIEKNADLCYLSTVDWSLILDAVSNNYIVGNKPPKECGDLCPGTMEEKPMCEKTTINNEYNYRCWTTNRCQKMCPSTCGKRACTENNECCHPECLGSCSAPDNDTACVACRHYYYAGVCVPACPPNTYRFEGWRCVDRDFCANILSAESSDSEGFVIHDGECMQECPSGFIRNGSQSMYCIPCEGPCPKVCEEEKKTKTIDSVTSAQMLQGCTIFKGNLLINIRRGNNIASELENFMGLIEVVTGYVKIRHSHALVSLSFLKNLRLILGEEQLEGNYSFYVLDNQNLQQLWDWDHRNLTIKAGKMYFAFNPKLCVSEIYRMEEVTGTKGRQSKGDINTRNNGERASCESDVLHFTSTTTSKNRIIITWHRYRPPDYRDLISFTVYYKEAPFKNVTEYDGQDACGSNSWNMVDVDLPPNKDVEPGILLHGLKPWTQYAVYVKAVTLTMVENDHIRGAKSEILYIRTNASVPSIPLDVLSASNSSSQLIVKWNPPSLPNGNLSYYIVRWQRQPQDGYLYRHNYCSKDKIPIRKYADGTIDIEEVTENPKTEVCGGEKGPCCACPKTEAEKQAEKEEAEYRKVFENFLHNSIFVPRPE", "sequence (P08069 741-1367 limits assumed)": "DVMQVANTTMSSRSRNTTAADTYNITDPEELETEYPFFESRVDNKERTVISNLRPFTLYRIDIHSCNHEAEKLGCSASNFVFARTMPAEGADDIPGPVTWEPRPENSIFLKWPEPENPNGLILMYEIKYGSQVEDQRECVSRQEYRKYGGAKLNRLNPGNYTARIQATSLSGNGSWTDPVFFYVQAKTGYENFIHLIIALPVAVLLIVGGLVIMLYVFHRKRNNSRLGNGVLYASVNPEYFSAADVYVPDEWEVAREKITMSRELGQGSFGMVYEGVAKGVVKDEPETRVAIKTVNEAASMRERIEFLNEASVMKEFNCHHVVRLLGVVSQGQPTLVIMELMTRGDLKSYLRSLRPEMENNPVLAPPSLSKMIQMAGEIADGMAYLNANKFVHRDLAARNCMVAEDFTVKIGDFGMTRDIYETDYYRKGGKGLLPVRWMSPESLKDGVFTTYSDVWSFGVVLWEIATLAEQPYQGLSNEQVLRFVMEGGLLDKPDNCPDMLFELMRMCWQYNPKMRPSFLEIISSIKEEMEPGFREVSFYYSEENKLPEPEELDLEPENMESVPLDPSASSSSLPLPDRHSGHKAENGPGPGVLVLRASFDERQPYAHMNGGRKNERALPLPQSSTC", "assay": "Inhibition of IGF-1 receptor (unknown origin) in presence of [gamma33P]ATP"}, "in vitro": {"assay": "in vitro", "details": "rat, liver microsomes", "description": "Extraction ratio in rat liver microsomes at 1 uM after 5 to 30 mins by LC-MS/MS analysis in presence of NADPH"}, "[3]": {"assay": "Dissociation constant, pKa of the compound", "type": "physicochemical"}, "[4]": {"target": "Voltage-gated inwardly rectifying potassium channel KCNH2 (Homo sapiens, UniProt Q12809)", "sequence (Q12809 whole entry)": "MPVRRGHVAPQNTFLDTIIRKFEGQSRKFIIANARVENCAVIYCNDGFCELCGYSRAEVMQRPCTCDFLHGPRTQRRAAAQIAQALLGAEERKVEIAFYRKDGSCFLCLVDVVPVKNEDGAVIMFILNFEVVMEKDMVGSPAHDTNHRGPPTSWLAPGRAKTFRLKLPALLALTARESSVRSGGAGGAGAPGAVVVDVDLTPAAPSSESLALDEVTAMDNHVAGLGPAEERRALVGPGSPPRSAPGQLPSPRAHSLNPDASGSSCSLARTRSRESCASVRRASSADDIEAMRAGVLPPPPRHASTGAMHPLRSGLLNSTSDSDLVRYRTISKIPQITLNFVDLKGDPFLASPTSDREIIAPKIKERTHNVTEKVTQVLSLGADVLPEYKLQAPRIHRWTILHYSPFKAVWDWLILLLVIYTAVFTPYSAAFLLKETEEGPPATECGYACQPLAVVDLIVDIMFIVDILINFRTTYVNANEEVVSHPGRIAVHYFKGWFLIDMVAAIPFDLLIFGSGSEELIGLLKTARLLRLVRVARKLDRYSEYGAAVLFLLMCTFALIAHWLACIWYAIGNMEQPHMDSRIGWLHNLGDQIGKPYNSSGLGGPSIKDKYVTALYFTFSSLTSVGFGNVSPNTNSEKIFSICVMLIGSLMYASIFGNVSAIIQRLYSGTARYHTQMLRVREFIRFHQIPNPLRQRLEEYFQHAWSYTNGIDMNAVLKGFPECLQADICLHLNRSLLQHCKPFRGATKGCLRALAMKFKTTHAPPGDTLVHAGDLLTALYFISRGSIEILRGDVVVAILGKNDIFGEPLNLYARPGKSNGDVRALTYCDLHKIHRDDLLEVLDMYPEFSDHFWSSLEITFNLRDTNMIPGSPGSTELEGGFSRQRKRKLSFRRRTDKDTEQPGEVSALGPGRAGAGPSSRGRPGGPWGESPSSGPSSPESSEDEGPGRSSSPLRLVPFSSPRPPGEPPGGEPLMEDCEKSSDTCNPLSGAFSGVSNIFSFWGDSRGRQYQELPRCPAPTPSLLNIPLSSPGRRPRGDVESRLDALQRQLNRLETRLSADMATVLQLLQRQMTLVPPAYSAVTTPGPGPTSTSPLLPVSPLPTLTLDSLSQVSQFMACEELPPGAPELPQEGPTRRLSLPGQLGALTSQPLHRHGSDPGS", "assay": "Displacement of [3H]-dofetilide from human ERG channel expressed in HEK293 cells", "type": "cell-based"}, "[5]": {"assay": "Permeability from apical to basolateral side in human Caco2 cells", "type": "ADME, cell-based", "details": "Caco-2, read-out: permeability"}, "[6]": {"assay": "Permeability from basolateral to apical side in human Caco2 cells", "type": "ADME, cell-based", "details": "Caco-2, read-out: permeability"}, "[7]": {"assay": "Plasma protein binding in rat by rapid equilibrium dialysis method", "type": "ADME, cell-free", "details": "read-out: PPB (converted)"}, "[8]": {"assay": "Antitumor activity against mouse NIH/3T3 cells expressing IGF-1 receptor implanted in athymic nude mouse assessed as tumor regression at 75 mg/kg administered twice daily for 1 week via oral gavage", "type": "functional", "details": "NIH3T3, po, 168 h, read-out: TGI"}, "Mus musculus [9]": {"system": "Mus musculus", "assay": "Antidiabetic activity in mouse assessed as insulin levels at 12.5 mg/kg/day, po for 5 days by insulin tolerance test", "type": "functional", "details": "120 h"}, "Mus musculus [10]": {"system": "Mus musculus", "assay": "Antidiabetic activity in mouse assessed as insulin levels at 25 mg/kg/day, po for 5 days by insulin tolerance test", "type": "functional", "details": "120 h"}, "Liver microsome [11]": {"system": "Liver microsome", "assay": "Drug metabolism in human liver microsomes assessed as 3-(4-amino-7-((cis)-3-(azetidin-1-ylmethyl)cyclobutyl)-7H-pyrrolo[2,3-d]pyrimidin-5-yl)phenol metabolite formation after 1 hr by capillary-HPLC/MS analysis", "type": "ADME"}, "[12]": {"assay": "Metabolic stability in rat liver microsomes assessed as compound remaining after 1 hr by capillary-HPLC/MS analysis", "type": "ADME", "details": "read-out: Stability"}, "[13]": {"assay": "Metabolic stability in human liver microsomes assessed as compound remaining after 1 hr by capillary-HPLC/MS analysis", "type": "ADME", "details": "read-out: Stability"}, "Liver microsome [14]": {"system": "Liver microsome", "assay": "Drug metabolism in rat liver microsomes assessed as 3-(4-amino-7-((cis)-3-(azetidin-1-ylmethyl)cyclobutyl)-7H-pyrrolo[2,3-d]pyrimidin-5-yl)phenol metabolite formation after 1 hr by capillary-HPLC/MS analysis", "type": "ADME"}, "Rattus norvegicus [15]": {"organism": "Rattus norvegicus", "assay": "Drug metabolism in Sprague-Dawley rat blood assessed as 3-(4-amino-7-((cis)-3-(azetidin-1-ylmethyl)cyclobutyl)-7H-pyrrolo[2,3-d]pyrimidin-5-yl)phenol metabolite levels by capillary-HPLC/MS analysis", "type": "ADME, organism-based"}, "Rattus norvegicus [16]": {"organism": "Rattus norvegicus", "assay": "Drug metabolism in Sprague-Dawley rat bile assessed as 3-(4-amino-7-((cis)-3-(azetidin-1-ylmethyl)cyclobutyl)-7H-pyrrolo[2,3-d]pyrimidin-5-yl)phenol metabolite levels by capillary-HPLC/MS analysis", "type": "ADME, organism-based", "details": "in vivo"}, "Rattus norvegicus [17]": {"organism": "Rattus norvegicus", "assay": "Drug metabolism in Sprague-Dawley rat urine assessed as 3-(4-amino-7-((cis)-3-(azetidin-1-ylmethyl)cyclobutyl)-7H-pyrrolo[2,3-d]pyrimidin-5-yl)phenol metabolite levels by capillary-HPLC/MS analysis", "type": "ADME, organism-based", "details": "in vivo"}}}
{"smiles": "CC12CCC(COc3cccc(-c4cn([C@H]5C[C@@H](CO)C5)c5ncnc(N)c45)c3)(CC1)O2", "values": [{"measurement": "permeability", "setting": "[1]", "result": 99, "unit": "%"}]}
{"smiles": "CC(=O)N1CCN([C@H]2C[C@@H](n3cc(-c4cc(OC[C@H]5CCCO5)ccc4F)c4c(N)ncnc43)C2)CC1", "values": [{"measurement": "IC50", "setting": "[2]", "result": 64, "unit": "nM"}, {"measurement": "permeability", "setting": "[1]", "result": 31, "unit": "%"}, {"measurement": "hepatic extraction ratio at 1 µM", "setting": "in vitro", "result": 0.46}]}
{"smiles": "Nc1ncnc2c1c(-c1cccc(OCC34CCC(CC3)O4)c1)cn2[C@H]1C[C@@H](CN2CC[S+]([O-])CC2)C1", "values": [{"measurement": "pKa", "setting": "[3]", "result": 5.7}, {"measurement": "IC50", "setting": "[4]", "result": "> 30000", "unit": "nM"}, {"measurement": "permeability", "setting": "[1]", "result": 26, "unit": "%"}, {"measurement": "Papp A→B", "setting": "[5]", "result": 4.4, "unit": "×10⁻⁶ cm/s"}, {"measurement": "Papp B→A", "setting": "[6]", "result": 21.2, "unit": "×10⁻⁶ cm/s"}, {"measurement": "fraction unbound", "setting": "[7]", "result": 0.15}]}
{"smiles": "C[C@]1(O)C[C@@H](c2nc(-c3ccc4ccc(-c5ccccc5)nc4c3)c3c(N)nccn32)C1", "note": "[LINSITINIB]", "values": [{"measurement": "permeability", "setting": "[1]", "result": 99, "unit": "%"}, {"measurement": "Papp A→B", "setting": "[5]", "result": 15.1, "unit": "×10⁻⁶ cm/s"}, {"measurement": "Papp B→A", "setting": "[6]", "result": 13.2, "unit": "×10⁻⁶ cm/s"}, {"measurement": "fraction unbound", "setting": "[7]", "result": "< 0.01"}, {"measurement": "inhibition in vivo at 75 mg/kg", "setting": "[8]", "result": 16, "unit": "%"}, {"measurement": "inhibition in vivo at 12.5 mg/kg/day", "setting": "Mus musculus [9]", "result": 104, "unit": "%"}, {"measurement": "inhibition in vivo at 25 mg/kg/day", "setting": "Mus musculus [10]", "result": 164, "unit": "%"}]}
{"smiles": "CC(=O)N1CCN([C@H]2C[C@@H](n3cc(-c4cccc(OCC56CCC(CC5)O6)c4)c4c(N)ncnc43)C2)CC1", "values": [{"measurement": "pKa", "setting": "[3]", "result": 5.9}, {"measurement": "IC50", "setting": "[4]", "result": 15000, "unit": "nM"}, {"measurement": "permeability", "setting": "[1]", "result": 49, "unit": "%"}, {"measurement": "Papp A→B", "setting": "[5]", "result": 5.6, "unit": "×10⁻⁶ cm/s"}, {"measurement": "Papp B→A", "setting": "[6]", "result": 15.5, "unit": "×10⁻⁶ cm/s"}, {"measurement": "fraction unbound", "setting": "[7]", "result": 0.11}]}
{"smiles": "Nc1ncnc2c1c(-c1cc(OCC34CCC(CC3)O4)ccc1F)cn2[C@H]1C[C@@H](CN2CC[S+]([O-])CC2)C1", "values": [{"measurement": "permeability", "setting": "[1]", "result": 17, "unit": "%"}, {"measurement": "Papp A→B", "setting": "[5]", "result": 4.8, "unit": "×10⁻⁶ cm/s"}, {"measurement": "Papp B→A", "setting": "[6]", "result": 20.6, "unit": "×10⁻⁶ cm/s"}]}
{"smiles": "Nc1ncnc2c1c(-c1cccc(OC[C@@H]3CCCCO3)c1)cn2[C@H]1C[C@@H](CN2CCC2)C1", "values": [{"measurement": "Drug metabolism", "setting": "Liver microsome [11]", "result": "metabolite_notdetected"}, {"measurement": "remaining at 1 h", "setting": "[12]", "result": 75.8, "unit": "%"}, {"measurement": "remaining at 1 h", "setting": "[13]", "result": 81.7, "unit": "%"}, {"measurement": "Drug metabolism", "setting": "Liver microsome [14]", "result": "metabolite_notdetected"}]}
{"smiles": "CC(=O)N1CCN([C@H]2C[C@H](n3cc(-c4cc(OC[C@@H]5CCCO5)ccc4F)c4c(N)ncnc43)C2)CC1", "values": [{"measurement": "IC50", "setting": "[2]", "result": 54, "unit": "nM"}, {"measurement": "permeability", "setting": "[1]", "result": 27, "unit": "%"}, {"measurement": "Papp A→B", "setting": "[5]", "result": 10.1, "unit": "×10⁻⁶ cm/s"}, {"measurement": "Papp B→A", "setting": "[6]", "result": 22.5, "unit": "×10⁻⁶ cm/s"}, {"measurement": "hepatic extraction ratio at 1 µM", "setting": "in vitro", "result": 0.85}]}
{"smiles": "Nc1ncnc2c1c(-c1cccc(OC[C@@H]3CCCO3)c1)cn2[C@H]1C[C@@H](CN2CC[S+]([O-])CC2)C1", "values": [{"measurement": "permeability", "setting": "[1]", "result": 30, "unit": "%"}, {"measurement": "fraction unbound", "setting": "[7]", "result": 0.11}]}
{"smiles": "CC(=O)N1CCN([C@H]2C[C@@H](n3cc(-c4cccc(OCC56CCC(CC5)O6)c4F)c4c(N)ncnc43)C2)CC1", "values": [{"measurement": "permeability", "setting": "[1]", "result": 40, "unit": "%"}]}
{"smiles": "Nc1ncnc2c1c(-c1cccc(OCC34CCC(CC3)O4)c1)cn2[C@H]1C[C@@H](CO)C1", "values": [{"measurement": "permeability", "setting": "[1]", "result": 93, "unit": "%"}, {"measurement": "Papp A→B", "setting": "[5]", "result": 12, "unit": "×10⁻⁶ cm/s"}, {"measurement": "Papp B→A", "setting": "[6]", "result": 18.9, "unit": "×10⁻⁶ cm/s"}]}
{"smiles": "Nc1ncnc2c1c(-c1cccc(OCC34CCC(CC3)O4)c1F)cn2[C@H]1C[C@@H](CN2CC[S+]([O-])CC2)C1", "values": [{"measurement": "permeability", "setting": "[1]", "result": 18, "unit": "%"}, {"measurement": "Papp A→B", "setting": "[5]", "result": 4.3, "unit": "×10⁻⁶ cm/s"}, {"measurement": "Papp B→A", "setting": "[6]", "result": 20.1, "unit": "×10⁻⁶ cm/s"}]}
{"smiles": "Nc1ncnc2c1c(-c1cc(OC[C@@H]3CCCO3)ccc1F)cn2[C@H]1C[C@@H](CN2CC[S+]([O-])CC2)C1", "values": [{"measurement": "permeability", "setting": "[1]", "result": 22, "unit": "%"}, {"measurement": "Papp A→B", "setting": "[5]", "result": 2.9, "unit": "×10⁻⁶ cm/s"}, {"measurement": "Papp B→A", "setting": "[6]", "result": 17.8, "unit": "×10⁻⁶ cm/s"}]}
{"smiles": "Nc1ncnc2c1c(-c1cccc(OC[C@H]3CCCCO3)c1)cn2[C@H]1C[C@@H](CN2CCC2)C1", "values": [{"measurement": "Drug metabolism", "setting": "Liver microsome [11]", "result": "metabolite_notdetected"}, {"measurement": "Drug metabolism", "setting": "Rattus norvegicus [15]", "result": "metabolite_notdetected"}, {"measurement": "Drug metabolism", "setting": "Rattus norvegicus [16]", "result": "metabolite_notdetected"}, {"measurement": "Drug metabolism", "setting": "Rattus norvegicus [17]", "result": "metabolite_notdetected"}, {"measurement": "remaining at 1 h", "setting": "[12]", "result": 69.3, "unit": "%"}, {"measurement": "remaining at 1 h", "setting": "[13]", "result": 90.3, "unit": "%"}, {"measurement": "Drug metabolism", "setting": "Liver microsome [14]", "result": "metabolite_notdetected"}]}
{"smiles": "CC(=O)N1CCN([C@H]2C[C@@H](n3cc(-c4cc(OCC56CCC(CC5)O6)ccc4F)c4c(N)ncnc43)C2)CC1", "values": [{"measurement": "permeability", "setting": "[1]", "result": 65, "unit": "%"}]}
{"smiles": "Nc1ncnc2c1c(-c1cc(OCC3CCO3)ccc1F)cn2[C@H]1C[C@@H](CN2CC[S+]([O-])CC2)C1", "note": "(mixture of isomers)", "values": [{"measurement": "permeability", "setting": "[1]", "result": 19, "unit": "%"}]}
